Tests used:
Assay type in all cases: in vivo
Phytophthora [1] = assay: D-3b) systemic action against Phytophthora on potato plants; conditions: Phytophthora, 96 h; 200 ppm; test D-3b) systemic (soil watering); potato plants (Bintje); evaluated after 4 days; read-out: inhibit fungal infestations
Experimental: (§1) D-3: Action Against Phytophthora on Potato Plants
2-3 week old potato plants (Bintje variety) are watered with a spray mixture (0.02% active ingredient based on the volume of the soil) prepared from a wettable powder formulation of the test compound. […] After 48 hours, the treated plants are infected with a sporangia suspension of the fungus. Fungus infestation is evaluated after incubation of the infected plants for 4 days at 90-100% relative humidity and +20° C. Fungal infestation is effectively controlled with compounds of Tables 1 to 35. Compounds E1.003, E1.004, E1.009, E1.011, E1.012, E1.019, E1.020, E1.021, E1.022, E1.025, E1.031, E1.032, E1.033, E1.038, E1.045, E1.049, E1.050, E1.053, E1.085, E1.089, E1.090, E1.091, E1.102, E1.110, E1.112, E1.121, E1.125, E1.129 at 200 ppm inhibit fungal infestations in both tests D-3a) and D-3b) by 80-100%.

Phytophthora [2] = assay: D-2a) residual-protective action against Phytophthora on tomato plants; conditions: Phytophthora, 120 h; 200 ppm; test D-2a) residual-protective, evaluated after 5 days, read-out: inhibit fungal infestations
Experimental: (§2) D-2: Action Against Phytophthora on Tomato Plants
(§3) a) Residual-protective Action
After a cultivation period of 3 weeks, tomato plants are sprayed with a spray mixture (0.02% active ingredient) prepared from a wettable powder formulation of the test compound. After 48 hours, the treated plants are infected with a sporangia suspension of the fungus. Fungus infestation is evaluated after incubation of the infected plants for 5 days at 90-100% relative humidity and +20° C.

Phytophthora [3] = assay: D-3a) residual-protective action against Phytophthora on potato plants; conditions: Phytophthora, 96 h; 200 ppm; test D-3a) residual-protective; potato plants (Bintje); evaluated after 4 days; read-out: inhibit fungal infestations
Experimental: as §1, §3
2-3 week old potato plants (Bintje variety) are sprayed with a spray mixture (0.02% active ingredient) prepared from a wettable powder formulation of the test compound. After 48 hours, the treated plants are infected with a sporangia suspension of the fungus. Fungus infestation is evaluated after incubation of the infected plants for 4 days at 90-100% relative humidity and +20° C.

Plasmopara viticola [4] = assay: D-1a) residual-protective action against Plasmopara viticola on vines; conditions: Plasmopara viticola, 144 h; 200 ppm; test D-1a) residual-protective; vine seedlings; evaluated after 6 days; read-out: inhibit fungal infestations
Experimental: (§4) D-1: Action Against Plasmopara viticola on Vines
as §3
Vine seedlings are sprayed at the 4- to 5-leaf stage with a spray mixture (0.02% active ingredient) prepared from a wettable powder formulation of the test compound. After 24 hours, the treated plants are infected with a sporangia suspension of the fungus. Fungus infestation is evaluated after incubation for 6 days at 95-100% relative humidity and +20° C.

Plasmopara viticola [5] = assay: D-1b) residual-curative action against Plasmopara viticola on vines; conditions: Plasmopara viticola, 144 h; 200 ppm; test D-1b) residual-curative; vine seedlings; evaluated 6 days after infection; read-out: inhibit fungal infestations
Experimental: as §4
b) Residual-curative Action
Vine seedlings are infected at the 4- to 5-leaf stage with a sporangia suspension of the fungus. After incubation for 24 hours in a humidity chamber at 95-100% relative humidity and +20° C., the infected plants are dried and sprayed with a spray mixture (0.02% active ingredient) prepared from a wettable powder formulation of the test compound. After the spray coating has dried, the treated plants are placed in the humidity chamber again.
Fungus infestation is evaluated 6 days after infection.

Phytophthora [6] = assay: D-2b) systemic action against Phytophthora on tomato plants; conditions: Phytophthora, 96 h; 200 ppm; test D-2b) systemic (soil watering), evaluated after 4 days, read-out: inhibit fungal infestations
Experimental: as §2
After a cultivation period of 3 weeks, tomato plants are watered with a spray mixture (0.02% active ingredient based on the volume of the soil) prepared from a wettable powder formulation of the test compound. […] After 96 hours, the treated plants are infected with a sporangia suspension of the fungus. Fungus infestation is evaluated after incubation of the infected plants for 4 days at 90-100% relative humidity and +20° C. […] Compounds E1.003, E1.004, E1.009, E1.011, E1.012, E1.014, E1.018, E1.019, E1.020, E1.021, E1.022, E1.023, E1.025, E1.031, E1.032, E1.033, E1.038, E1.040, E1.044, E1.045, E1.049, E1.050, E1.053, E1.055, E1.057, E1.064, E1.085, E1.089, E1.090, E1.091, E1.102, E1.08, E1.110, E1.112, E1.121, E1.125, E1.129, E1.139 and E1.141 at 200 ppm inhibit fungal infestations in both tests D-2a) and D-2b) by 80-100%.

Measured: inhibition at 200 ppm

C#CCOc1ccc(CCNC(=O)C(OC)c2ccc(Cl)cc2)cc1OC (stereo not drawn) [Compound E1.003, 2-(4-Chloro-phenyl)-2-methoxy-N-[2-(3-methoxy-4-prop-2-ynyloxy-phenyl)-ethyl]-acetamide]
80 to 100%: all assays above

C#CCOc1ccc(CCNC(=O)C(OCC)c2ccc(Cl)cc2)cc1OC (stereo not drawn) [Compound E1.004, 2-(4-chloro-phenyl)-2-ethoxy-N-[2-(3-methoxy-4-prop-2-ynyloxy-phenyl)-ethyl]-acetamide]
80 to 100%: all assays above

C#CCOc1ccc(CCNC(=O)C(OCC=C)c2ccc(Cl)cc2)cc1OC (stereo not drawn) [Compound E1.009, 2-allyloxy-2-(4-chloro-phenyl)-N-[2-(3-methoxy-4-prop-2-ynyloxy-phenyl)-ethyl]-acetamide]
80 to 100%: all assays above

C#CCOc1ccc(CCNC(=O)C(OCC#C)c2ccc(Cl)cc2)cc1OC (stereo not drawn) [Compound E1.011, 2-(4-chloro-phenyl)-N-[2-(3-methoxy-4-prop-2-ynyloxy-phenyl)-ethyl]-2-prop-2-ynyloxy-acetamide]
80 to 100%: all assays above

C#CCOC(C(=O)NCCc1ccc(OCC#CCC)c(OC)c1)c1ccc(Cl)cc1 (stereo not drawn) [Compound E1.012, 2-(4-chloro-phenyl)-N-[2-(3-methoxy-4-pent-2-ynyloxy-phenyl)-ethyl]-2-prop-2-ynyloxy-acetamide]
80 to 100%: all assays above

C#CCOc1ccc(CCNC(=O)C(OCC#CC)c2ccc(Cl)cc2)cc1OC (stereo not drawn) [Compound E1.014, 2-but-2-ynyloxy-2-(4-chloro-phenyl)-N-[2-(3-methoxy-4-prop-2-ynyloxy-phenyl)-ethyl]-acetamide]
80 to 100%: Phytophthora [2] | Plasmopara viticola [4] | Plasmopara viticola [5] | Phytophthora [6]

C#CCOc1ccc(CCNC(=O)C(OCOCC)c2ccc(Cl)cc2)cc1OC (stereo not drawn) [Compound E1.018, 2-(4-chloro-phenyl)-2-ethoxymethoxy-N-[2-(3-methoxy-4-prop-2-ynyloxy-phenyl)-ethyl]-acetamide]
80 to 100%: Phytophthora [2] | Plasmopara viticola [4] | Plasmopara viticola [5] | Phytophthora [6]

C#CCOc1ccc(CCNC(=O)C(OC)c2ccc(Br)cc2)cc1OC (stereo not drawn) [Compound E1.019, 2-(4-bromo-phenyl)-2-methoxy-N-[2-(3-methoxy-4-prop-2-ynyloxy-phenyl)-ethyl]-acetamide]
80 to 100%: all assays above

C#CCOc1ccc(CCNC(=O)C(OCC)c2ccc(Br)cc2)cc1OC (stereo not drawn) [Compound E1.020, 2-(4-bromo-phenyl)-2-ethoxy-N-[2-(3-methoxy-4-prop-2-ynyloxy-phenyl)-ethyl]-acetamide]
80 to 100%: all assays above

C#CCOc1ccc(CCNC(=O)C(OCC=C)c2ccc(Br)cc2)cc1OC (stereo not drawn) [Compound E1.021, 2-allyloxy-2-(4-bromo-phenyl)-N-[2-(3-methoxy-4-prop-2-ynyloxy-phenyl)-ethyl]-acetamide]
80 to 100%: all assays above

C#CCOC(C(=O)NCCc1ccc(OCC#CCC)c(OC)c1)c1ccc(Br)cc1 (stereo not drawn) [Compound E1.023, 2-(4-bromo-phenyl)-N-[2-(3-methoxy-4-pent-2-ynyloxy-phenyl)-ethyl]2-prop-2-ynyloxy-acetamide]
80 to 100%: Phytophthora [2] | Plasmopara viticola [4] | Plasmopara viticola [5] | Phytophthora [6]

C#CCOc1ccc(CCNC(=O)C(OCC#CC)c2ccc(Br)cc2)cc1OC (stereo not drawn) [Compound E1.025, 2-(4-bromo-phenyl)-2-but-2-ynyloxy-N-[2-(3-methoxy-4-prop-2-ynyloxy-phenyl)-ethyl]-acetamide]
80 to 100%: all assays above

C#CCOc1ccc(CCNC(=O)C(OCC#C)c2ccc(F)cc2)cc1OC (stereo not drawn) [Compound E1.033, 2-(4-fluoro-phenyl)-N-[2-(3-methoxy-4-prop-2-ynyloxy-phenyl)-ethyl]-2-prop-2-ynyloxy-acetamide]
80 to 100%: all assays above

C#CCOc1ccc(CCNC(=O)C(OCC#C)c2ccc(C(F)(F)F)cc2)cc1OC (stereo not drawn) [Compound E1.050, N-[2-(3-methoxy-4-prop-2-ynyloxy-phenyl)-ethyl]-2-prop-2-ynyloxy-2-(4-trifluoromethyl-phenyl)-acetamide]
80 to 100%: all assays above

— US6683211B1, “Phenyl-propargylether derivatives” (priority 2000, dated 2004)
